The values that follow are results of earlier work, collected in PMC6105164 (Cancer Chemotherapy and Pharmacology, 2018).

Data set [1] relates to patients with KRAS mutations. Further details: method as in PMID 24024839, PMID 18316791, PMID 23182985. Particulars: cited from earlier work.
Another data set relates to prenylation of RAS. Further details: method as in PMID 22020205, PMID 15084616, PMID 15459217. Particulars: cited from earlier work.

In the case of panitumumab: EGF receptor inhibitor, the efficacy result in data set [1] is recorded as “a little efficacy”.
Turning to `Cn1cncc1[C@@](N)(c1ccc(Cl)cc1)c1ccc2c(c1)c(-c1cccc(Cl)c1)cc(=O)n2C` [tipifarnib], the “activity in clinical trials” value with prenylation of RAS was “a little activity”.
